What all share (assay type): functional
For experiment [1], the system named is Candida albicans. Briefly: Antifungal activity against Candida albicans CA98001.
In experiment [2] the test system is Candida albicans. The experiment can be described thus: Antifungal activity against Candida albicans DSY735.
The subject of experiment [3] is Candida albicans. The experiment can be described thus: Antifungal activity against Candida albicans CAAL-74.
For experiment [4], the system named is Pichia kudriavzevii. Briefly: Antifungal activity against Candida krusei CK506.
Experiment [5] has as its system Pichia kudriavzevii. Briefly: Antifungal activity against Candida krusei CK8.
For the next experiment, the system named is Nakaseomyces glabratus. The experiment can be described thus: Antifungal activity against Candida glabrata CG468.
The subject of experiment [6] is Candida parapsilosis. The experiment can be described thus: Antifungal activity against Candida parapsilosis CAPA1.
For experiment [7], the system named is Candida parapsilosis. Briefly: Antifungal activity against Candida parapsilosis CAPA2.
Another experiment concerns Aspergillus fumigatus. The experiment can be described thus: Antifungal activity against Aspergillus fumigatus AF98003.
The subject of experiment [8] is Candida albicans. The experiment can be described thus: Antifungal activity against fluconalzole-susceptible Candida albicans after 24 hrs.
The test system of experiment [9] is Candida parapsilosis. The experiment can be described thus: Antifungal activity against fluconalzole-susceptible Candida parapsilosis after 24 hrs. To be noted: Lodderomyces parapsilosis.
In experiment [10] the test system is Candida albicans. Briefly: Antifungal activity against Candida albicans after 48 hrs by NCCLS protocol based method.
Experiment [11] has as its system Candida parapsilosis. The experiment can be described thus: Antifungal activity against Candida parapsilosis after 48 hrs by NCCLS protocol based method. To be noted: Lodderomyces parapsilosis.
[12] abbreviates: Candida albicans, CA98001, read-out: MIC.
Setting [13] is: Candida albicans, DSY735, read-out: MIC.
The mark [14] stands for this setting: Candida albicans, CAAL-74, read-out: MIC.
Setting [15] is: Pichia kudriavzevii, CK506, read-out: MIC.
Setting [16] is: Pichia kudriavzevii, CK8, read-out: MIC.
[17] abbreviates: Nakaseomyces glabratus, CG468, read-out: MIC.
Setting [18] is: Lodderomyces parapsilosis, CAPA1, read-out: MIC.
The mark [19] stands for this setting: Lodderomyces parapsilosis, CAPA2, read-out: MIC.

Converted amounts (≈) assume the structure as drawn.

Consider `CN(Cc1ccc(S(N)(=O)=O)cc1)CC(O)(Cn1cncn1)c1ccc(F)cc1F` (stereo not given), for which the MIC in the experiment on Candida albicans [1] (setting [12]), with Candida albicans [2] (setting [13]), in the experiment on Candida albicans [3] (setting [14]), in the experiment on Pichia kudriavzevii [4] (setting [15]), in the experiment with Pichia kudriavzevii [5] (setting [16]) and in the experiment with Nakaseomyces glabratus (setting [17]) was 0.001 to 0.069 µg/mL (≈ 0.00229 to 0.158 µM) throughout. In addition, the results for the MIC in the experiment on Candida parapsilosis [6] (setting [18]), in the experiment with Candida parapsilosis [7] (setting [19]) and against Aspergillus fumigatus were 0.001 to 0.069 µg/mL (≈ 0.00229 to 0.158 µM), 0.001 to 0.069 µg/mL (≈ 0.00229 to 0.158 µM) and 0.767 to 3.57 µg/mL (≈ 1.75 to 8.16 µM), respectively.

As to `CC(C)NS(=O)(=O)c1ccc(CN(C)CC(O)(Cn2cncn2)c2ccc(F)cc2F)cc1` (stereo not given), the minimal inhibitory concentration (MIC) with Candida albicans [1] (setting [12]), with Candida albicans [2] (setting [13]), in the experiment on Candida albicans [3] (setting [14]), in the experiment with Pichia kudriavzevii [4] (setting [15]), in the experiment on Pichia kudriavzevii [5] (setting [16]) and in the experiment with Nakaseomyces glabratus (setting [17]) was 0.001 to 0.069 µg/mL (≈ 0.00209 to 0.144 µM) throughout. Besides, the MIC – broadly, the lowest concentration that inhibits growth of the organism – was 0.001 to 0.069 µg/mL (≈ 0.00209 to 0.144 µM) in the experiment on Candida parapsilosis [6] (setting [18]), 0.001 to 0.069 µg/mL (≈ 0.00209 to 0.144 µM) with Candida parapsilosis [7] (setting [19]) and 0.767 to 3.57 µg/mL (≈ 1.6 to 7.44 µM) in the experiment with Aspergillus fumigatus.

Turning to `OC(Cn1cncn1)(Cn1cnc(SCc2ccc(Cl)c(Cl)c2)n1)c1ccc(F)cc1F` (stereo not given), the MIC with Candida albicans [8] and against Candida parapsilosis [9] was 0.063 to 1 µg/mL (≈ 0.127 to 2.01 µM) each time.

On to `CN(Cc1ccc(S(=O)(=O)Nc2ccccc2)cc1)CC(O)(Cn1cncn1)c1ccc(F)cc1F` (stereo not given), for which the MIC in the experiment on Candida albicans [1] (setting [12]), in the experiment with Candida albicans [2] (setting [13]), with Candida albicans [3] (setting [14]), in the experiment on Pichia kudriavzevii [4] (setting [15]), with Pichia kudriavzevii [5] (setting [16]) and with Nakaseomyces glabratus (setting [17]) was 0.001 to 0.069 µg/mL (≈ 0.00195 to 0.134 µM) throughout. Moreover, the MIC was in the range of 0.001 to 0.069 µg/mL (≈ 0.00195 to 0.134 µM) with Candida parapsilosis [6] (setting [18]), 0.001 to 0.069 µg/mL (≈ 0.00195 to 0.134 µM) with Candida parapsilosis [7] (setting [19]) and 0.767 to 3.57 µg/mL (≈ 1.49 to 6.95 µM) in the experiment on Aspergillus fumigatus.

As for `OC(Cn1cncn1)(Cn1cnc(SCc2ccccc2F)n1)c1ccc(F)cc1F` (stereo not given), the minimum inhibitory concentration (MIC) against Candida albicans [8] and against Candida parapsilosis [9] was 0.063 to 1 µg/mL (≈ 0.141 to 2.24 µM) in each case.

With `COC(=O)CC[C@@H](C)[C@H]1CC[C@H]2[C@@H]3CC[C@@H]4C[C@@H](n5cc(CC(O)(Cn6cncn6)c6ccc(F)cc6F)nn5)CC[C@]4(C)[C@H]3C[C@H](O)[C@]12C` (stereo not given in full), the MIC against Candida albicans [10] and against Candida parapsilosis [11] was 3.12 to 6.25 µg/mL (≈ 4.49 to 8.99 µM) each time.

For the molecule `CCCNS(=O)(=O)c1ccc(CN(C)CC(O)(Cn2cncn2)c2ccc(F)cc2F)cc1` (stereo not given), the MIC in the experiment on Candida albicans [1] (setting [12]), in the experiment with Candida albicans [2] (setting [13]), with Candida albicans [3] (setting [14]), with Pichia kudriavzevii [4] (setting [15]), in the experiment with Pichia kudriavzevii [5] (setting [16]) and in the experiment with Nakaseomyces glabratus (setting [17]) was 0.001 to 0.069 µg/mL (≈ 0.00209 to 0.144 µM) in each case. The MIC was 0.001 to 0.069 µg/mL (≈ 0.00209 to 0.144 µM) in the experiment on Candida parapsilosis [6] (setting [18]), 0.001 to 0.069 µg/mL (≈ 0.00209 to 0.144 µM) with Candida parapsilosis [7] (setting [19]) and 0.767 to 3.57 µg/mL (≈ 1.6 to 7.44 µM) with Aspergillus fumigatus.

For the molecule `O=[N+]([O-])c1ccc(CSc2ncn(CC(O)(Cn3cncn3)c3ccc(F)cc3F)n2)cc1` (stereo not given), the MIC against Candida albicans [8] and with Candida parapsilosis [9] was 0.063 to 1 µg/mL (≈ 0.133 to 2.11 µM) each time.

For `OC(Cn1cncn1)(Cn1cnc(SCc2cccc(F)c2)n1)c1ccc(F)cc1F` (stereo not given), the MIC in the experiment with Candida albicans [8] and against Candida parapsilosis [9] was 0.063 to 1 µg/mL (≈ 0.141 to 2.24 µM) throughout.

With `CN(Cc1ccc(S(=O)(=O)Nc2ccc([N+](=O)[O-])cc2)cc1)CC(O)(Cn1cncn1)c1ccc(F)cc1F` (stereo not given), the MIC with Candida albicans [1] (setting [12]), with Candida albicans [2] (setting [13]), with Candida albicans [3] (setting [14]), in the experiment with Pichia kudriavzevii [4] (setting [15]), in the experiment on Pichia kudriavzevii [5] (setting [16]) and in the experiment with Nakaseomyces glabratus (setting [17]) was 0.001 to 0.069 µg/mL (≈ 0.00179 to 0.124 µM) each time. Also, the minimum inhibitory concentration (MIC) with Candida parapsilosis [6] (setting [18]) was 0.001 to 0.069 µg/mL (≈ 0.00179 to 0.124 µM); in the experiment with Candida parapsilosis [7] (setting [19]), 0.001 to 0.069 µg/mL (≈ 0.00179 to 0.124 µM); in the experiment with Aspergillus fumigatus, 0.767 to 3.57 µg/mL (≈ 1.37 to 6.39 µM).

On to `CN(Cc1ccc(-c2ccc(C#N)cc2)cc1)CC(O)(Cn1cncn1)c1ccc(F)cc1F` (stereo not given), for which the MIC in the experiment on Candida albicans [1], against Candida albicans [2], with Candida albicans [3], against Pichia kudriavzevii [4], in the experiment with Pichia kudriavzevii [5] and with Nakaseomyces glabratus was 0.001 to 1.32 µg/mL throughout. In addition, the values for the MIC against Candida parapsilosis [6], against Candida parapsilosis [7] and against Aspergillus fumigatus were 0.001 to 1.32 µg/mL, 0.001 to 1.32 µg/mL and 2.76 µg/mL (≈ 6.01 µM), respectively.

For `OC(Cn1cncn1)(Cn1cnc(SCc2ccc(Cl)cc2Cl)n1)c1ccc(F)cc1F` (stereo not given), the MIC against Candida albicans [8] and in the experiment on Candida parapsilosis [9] was 0.063 to 1 µg/mL (≈ 0.127 to 2.01 µM) each time.

Turning to `CC(C)c1ccc(NS(=O)(=O)c2ccc(CN(C)CC(O)(Cn3cncn3)c3ccc(F)cc3F)cc2)cc1` (stereo not given), the MIC in the experiment with Candida albicans [1] (setting [12]), in the experiment on Candida albicans [2] (setting [13]), with Candida albicans [3] (setting [14]), in the experiment on Pichia kudriavzevii [4] (setting [15]), with Pichia kudriavzevii [5] (setting [16]) and with Nakaseomyces glabratus (setting [17]) was 0.001 to 0.069 µg/mL (≈ 0.0018 to 0.124 µM) in each case. Further, the values for the MIC in the experiment with Candida parapsilosis [6] (setting [18]), in the experiment on Candida parapsilosis [7] (setting [19]) and in the experiment on Aspergillus fumigatus were 0.001 to 0.069 µg/mL (≈ 0.0018 to 0.124 µM), 0.001 to 0.069 µg/mL (≈ 0.0018 to 0.124 µM) and 0.767 to 3.57 µg/mL (≈ 1.38 to 6.42 µM), respectively.
